How the values were obtained:
human renal renin = biological target: T1, human renal renin (Homo sapiens, UniProt P00797); assay: Inhibition of human renal renin with human angiotensinogen substrate; angiotensin I formed measured by radioimmunoassay; format: biochemical; settings: 37 degrees C, pH 6.0; read-out: IC₅₀
T1 construct: human renal renin, free from acid proteolytic activity; from tissue; host or cells: human kidney (concluded from the word 'renal')
T1 sequence (P00797 67-406): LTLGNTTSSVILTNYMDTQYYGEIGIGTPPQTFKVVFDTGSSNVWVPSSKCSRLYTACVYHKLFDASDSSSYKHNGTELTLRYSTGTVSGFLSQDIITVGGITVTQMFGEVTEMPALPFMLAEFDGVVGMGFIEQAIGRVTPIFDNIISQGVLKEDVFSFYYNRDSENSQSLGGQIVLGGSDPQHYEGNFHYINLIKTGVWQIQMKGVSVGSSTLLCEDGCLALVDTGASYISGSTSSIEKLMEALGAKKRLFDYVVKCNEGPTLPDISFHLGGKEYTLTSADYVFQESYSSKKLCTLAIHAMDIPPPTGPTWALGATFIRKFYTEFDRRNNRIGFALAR
Experimental: At the end of the incubation, the amount of angiotensin I formed is measured by radioimmunoassay and the molar concentration required to cause 50% inhibition, expressed as the IC₅₀ is calculated. […]

[1] = test system: male cynomolgus monkeys (M. fascicularis); assay: In vivo intraduodenal activity: blood pressure in salt-depleted, anesthetized monkeys; settings: 1.0 mg/kg intraduodenal
Experimental: Intraduodenal activity for the resultant compound from Example 105 was determined at 1.0 mg/kg in male cynomolgus monkeys (M. fascicularis) weighing between 3 and 5 kg. The monkeys were fed a low-salt chow and fresh fruit diet and treated twice with furosemide (5 mg/kg, po), 1 week and 1 day before the experiment. Following this regimen renders the monkeys in a salt-depleted state, characterized by normal base-line blood pressures but elevated plasma renin activities. The monkeys were fasted overnight and studied under anesthesia on the day of the experiment (sodium pentobarbitol, 15 mg/kg bolus + 0.10 mg/kg/min maintenance iv infusion). A femoral artery was catherterized for the direct and continuous measurement of blood pressure (Grass Pressure Transducer Model P23dB and Graph Polygraph Model 7). The compound was tested for intraduodenal activity via a catheter placed directly into the proximal segment of the duodenum following a laparotomy. Each monkey received only one dose of compound.

`CC(C)C(O)C(F)(F)C(O)C(CC1CCCCC1)NC(=O)C(Cc1c[nH]cn1)NC(=O)C(CC(=O)N1CCOCC1)Cc1cccc2ccccc12` [Example 86, 2(R,S)-(4-morpholinylcarbonylmethyl)-3-(1′-naphthyl)-propionic acid amide of His-2(S)-amino-1-cyclohexyl-4,4-difluoro-3(R),5(R)-dihydroxy-6-methylheptane] gave an IC50 (human renal renin) of 1.2 nM.

Work on `CC(C)C[C@H](NC(=O)[C@H](Cc1ccccc1)NC(=O)OC(C)(C)C)C(=O)N[C@@H](CC1CCCCC1)[C@@H](O)C(F)(F)[C@H](O)C(C)C` [Example 60, Boc-Phe-Leu amide of 2(S)-Amino-1-cyclohexyl-4,4-difluoro-3(R),5(R)dihydroxy-6-methylheptane] yielded an IC50 (human renal renin) of 0.64 nM.

Molecule `CC(C)CC(NC(=O)C(Cc1ccccc1)NC(=O)OC(C)(C)C)C(=O)NC(CC1CCCCC1)C(=O)C(F)(F)C(=O)C(C)C` [Example 98, Boc-Phe-Leu amide of 2(S)-Amino-1-cyclohexyl-4,4-difluoro-3,5-dioxo-6-methylheptane] has an IC50 (human renal renin) of 0.69 nM.

`CC(C)[C@@H](O)C(F)(F)[C@H](O)[C@H](CC1CCCCC1)NC(=O)[C@H](Cc1c[nH]cn1)NC(=O)[C@H](Cc1ccccc1)NC(=O)OC(C)(C)C` [Example 77, Boc-Phe-His-amide of 2(S)-Amino-1-cyclohexyl-4,4-difluoro-3(R),5(R)-dihydroxy-6-methylheptane] gave an IC50 (human renal renin) of 1.2 nM.

Molecule `CC(C)[C@@H](O)C(F)(F)[C@H](O)[C@H](CC1CCCCC1)NC(=O)C(Cc1cnc[nH]1)NC(=O)C(Cc1ccc(O)cc1)N(C)C(=O)CC(C)(C)NC(=O)OCc1ccccc1` (stereo partly drawn) [Example 80, Cbz((β,β-di-Me)-β-Ala)-(Me)Tyr-His amide of 2(S)-Amino-1-cyclohexyl-4,4-difluoro-3(R),5(R)-dihydroxy-6-methylheptane] has an IC50 (human renal renin) of 1 nM.

For `CC(C)CC(NC(=O)C(Cc1ccccc1)NC(=O)OC(C)(C)C)C(=O)NC(CC1CCCCC1)C(O)C(F)(F)C(O)C(C)C` [Example 61, Boc-Phe-Leu amide of 2(S)-Amino-1-cyclohexyl-4,4-difluoro-3(R),5(S)-dihydroxy-6-methylheptane], the IC50 (human renal renin) was 22 nM.

In the case of `CC(C)C(O)C(F)(F)C(O)C(CC1CCCCC1)NC(=O)C(Cc1c[nH]cn1)NC(=O)C(=Cc1ccccc1)CC(=O)N1CCOCC1` [Example 87, (E)-2-((4-Morpholinylcarbonyl)methyl)cinnamic acid amide of His-2(S)-amino-1-cyclohexyl-4,4-difluoro-3(R),5(R)-dihydroxy-6-methylheptane], the IC50 (human renal renin) is reported as 5.2 nM.

With `CC(C)[C@@H](O)C(F)(F)[C@H](O)[C@H](CC1CCCCC1)NC(=O)[C@H](Cc1cscn1)NC(=O)[C@@H](CC(=O)N(C)CCn1cccn1)Cc1ccccc1` [Example 105, (2R)-2-Benzyl-3-[(2-pyrazol-1-ylethyl)methylaminocarbonyl]propionic acid amide of L-(4-thiazolyl)alanine-2(S)-amino-1-cyclohexyl-4,4-difluoro-3(R),5(R)-dihydroxy-6-methylheptane] the “MBP (Mean blood pressure)” value ([1]; Monkey A, Time 0 min) was 85 mm Hg, the “MBP (Mean blood pressure)” value ([1]; Monkey A, Time 5 min) was 85 mm Hg and the “MBP (Mean blood pressure)” value ([1]; Monkey A, Time 10 min) was 74 mm Hg. For the same molecule, the “MBP (Mean blood pressure)” value ([1]; Monkey A, Time 15 min) was 69 mm Hg, the “MBP (Mean blood pressure)” value ([1]; Monkey A, Time 20 min) was 65 mm Hg and the “MBP (Mean blood pressure)” value ([1]; Monkey A, Time 25 min) was 67 mm Hg. The “MBP (Mean blood pressure)” value ([1]; Monkey A, Time 30 min) was 70 mm Hg, the “MBP (Mean blood pressure)” value ([1]; Monkey A, Time 35 min) was 71 mm Hg and the “MBP (Mean blood pressure)” value ([1]; Monkey A, Time 40 min) was 74 mm Hg. The “MBP (Mean blood pressure)” value ([1]; Monkey A, Time 45 min) was 74 mm Hg, the “MBP (Mean blood pressure)” value ([1]; Monkey A, Time 50 min) was 76 mm Hg and the “MBP (Mean blood pressure)” value ([1]; Monkey A, Time 55 min) was 77 mm Hg. The “MBP (Mean blood pressure)” value ([1]; Monkey A, Time 60 min) was 79 mm Hg, the “MBP (Mean blood pressure)” value ([1]; Monkey A, Time 65 min) was 79 mm Hg and the “MBP (Mean blood pressure)” value ([1]; Monkey A, Time 70 min) was 79 mm Hg. For the same molecule, the “MBP (Mean blood pressure)” value ([1]; Monkey A, Time 75 min) was 80 mm Hg, the “MBP (Mean blood pressure)” value ([1]; Monkey A, Time 80 min) was 79 mm Hg and the “MBP (Mean blood pressure)” value ([1]; Monkey A, Time 85 min) was 80 mm Hg. For the same molecule, the “MBP (Mean blood pressure)” value ([1]; Monkey A, Time 90 min) was 80 mm Hg, the “MBP (Mean blood pressure)” value ([1]; Monkey A, Time 95 min) was 81 mm Hg and the “MBP (Mean blood pressure)” value ([1]; Monkey A, Time 100 min) was 82 mm Hg. The “MBP (Mean blood pressure)” value ([1]; Monkey A, Time 105 min) was 83 mm Hg, the “MBP (Mean blood pressure)” value ([1]; Monkey A, Time 109 min) was 81 mm Hg and the “MBP (Mean blood pressure)” value ([1]; Monkey A, Time 114 min) was 81 mm Hg. The “MBP (Mean blood pressure)” value ([1]; Monkey A, Time 119 min) was 81 mm Hg, the “MBP (Mean blood pressure)” value ([1]; Monkey B, Time 0 min) was 89 mm Hg and the “MBP (Mean blood pressure)” value ([1]; Monkey B, Time 5 min) was 88 mm Hg. For the same molecule, the “MBP (Mean blood pressure)” value ([1]; Monkey B, Time 10 min) was 76 mm Hg, the “MBP (Mean blood pressure)” value ([1]; Monkey B, Time 15 min) was 79 mm Hg and the “MBP (Mean blood pressure)” value ([1]; Monkey B, Time 20 min) was 75 mm Hg. For the same molecule, the “MBP (Mean blood pressure)” value ([1]; Monkey B, Time 25 min) was 74 mm Hg, the “MBP (Mean blood pressure)” value ([1]; Monkey B, Time 30 min) was 75 mm Hg and the “MBP (Mean blood pressure)” value ([1]; Monkey B, Time 35 min) was 78 mm Hg. The “MBP (Mean blood pressure)” value ([1]; Monkey B, Time 40 min) was 83 mm Hg, the “MBP (Mean blood pressure)” value ([1]; Monkey B, Time 44 min) was 83 mm Hg and the “MBP (Mean blood pressure)” value ([1]; Monkey B, Time 49 min) was 82 mm Hg. The “MBP (Mean blood pressure)” value ([1]; Monkey B, Time 54 min) was 83 mm Hg, the “MBP (Mean blood pressure)” value ([1]; Monkey B, Time 59 min) was 86 mm Hg and the “MBP (Mean blood pressure)” value ([1]; Monkey B, Time 64 min) was 83 mm Hg. The “MBP (Mean blood pressure)” value ([1]; Monkey B, Time 69 min) was 86 mm Hg, the “MBP (Mean blood pressure)” value ([1]; Monkey B, Time 74 min) was 87 mm Hg and the “MBP (Mean blood pressure)” value ([1]; Monkey B, Time 79 min) was 89 mm Hg. For the same molecule, the “MBP (Mean blood pressure)” value ([1]; Monkey B, Time 84 min) was 87 mm Hg, the “MBP (Mean blood pressure)” value ([1]; Monkey B, Time 89 min) was 92 mm Hg and the “MBP (Mean blood pressure)” value ([1]; Monkey B, Time 94 min) was 86 mm Hg. For the same molecule, the “MBP (Mean blood pressure)” value ([1]; Monkey B, Time 99 min) was 90 mm Hg, the “MBP (Mean blood pressure)” value ([1]; Monkey B, Time 104 min) was 91 mm Hg and the “MBP (Mean blood pressure)” value ([1]; Monkey B, Time 109 min) was 90 mm Hg. The “MBP (Mean blood pressure)” value ([1]; Monkey B, Time 114 min) was 92 mm Hg, the “MBP (Mean blood pressure)” value ([1]; Monkey B, Time 119 min) was 92 mm Hg and the IC50 (human renal renin) was 0.35 nM.

With `CC(O)C(F)(F)C(O)C(CC1CCCCC1)NC(=O)C(Cc1c[nH]cn1)NC(=O)C(Cc1ccccc1)NC(=O)OC(C)(C)C` [Example 78, Boc-Phe-His amide of 2(S)-Amino-1-cyclohexyl-4,4-difluoro-3(R),5(R,S)-dihydroxyhexane] the IC50 (human renal renin) was 2.5 nM.

“Cbz((β,β-di-Me)-β-Ala)-Phe-His amide of 2(S)-Amino-1-cyclohexyl-4,4-difluoro-3(R),5(R)-dihydroxy-6-methylheptane [Example 79]” gave an IC50 (human renal renin) of 1.1 nM.

`CC(C)[C@@H](O)C(F)(F)[C@H](O)[C@H](CC1CCCCC1)NC(=O)[C@H](Cc1cscn1)NC(=O)[C@@H](CC(=O)N1CCN(C)CC1)Cc1ccccc1` [Example 93, 2(R)-2-Benzyl-3(4-methylpiperazine-1-ylcarbonyl)propionic acid amide of L-(4-thiazolyl)alamine-2(S) amino-1-cyclohexyl-4,4-difluoro-3(R),5(R)-dihydroxy-6-methylheptane] was tested, and the IC50 (human renal renin) was 1.5 nM.

`CC(C)[C@@H](O)C(F)(F)[C@H](O)[C@H](CC1CCCCC1)NC(=O)[C@H](Cc1c[nH]cn1)NC(=O)[C@@H](CC(=O)N1CCOCC1)Cc1ccccc1` [Example 83, 2(R)-2-Benzyl-3-Morpholinocarbonylpropionic acid amide of His-2(S)-Amino-1-cyclohexyl-4,4-difluoro-3(R),5(R)-dihydroxy-6-methylheptane] showed an IC50 (human renal renin) of 1.5 nM.

Source: patent publication EP0416393A1, “Peptidyl difluorodiol renin inhibitors” (ABBOTT LABORATORIES, priority 1989, dated 1991)
